Columns and labels:
Staphylococcus aureus [1] = assay: Antibacterial activity against Staphylococcus aureus assessed as zone of inhibition at 10 ug/ml by agar disc diffusion method; type: functional; conditions: read-out: IZ
Staphylococcus aureus [2] = assay: Antibacterial activity against Staphylococcus aureus assessed as zone of inhibition at 25 ug/ml by agar disc diffusion method; type: functional; conditions: read-out: IZ
Staphylococcus aureus [3] = assay: Antibacterial activity against Staphylococcus aureus assessed as zone of inhibition at 35 ug/ml by agar disc diffusion method; type: functional; conditions: read-out: IZ
Escherichia coli [4] = assay: Antibacterial activity against Escherichia coli assessed as zone of inhibition at 10 ug/ml by agar disc diffusion method; type: functional; conditions: read-out: IZ
Escherichia coli [5] = assay: Antibacterial activity against Escherichia coli assessed as zone of inhibition at 25 ug/ml by agar disc diffusion method; type: functional; conditions: read-out: IZ
Escherichia coli [6] = assay: Antibacterial activity against Escherichia coli assessed as zone of inhibition at 35 ug/ml by agar disc diffusion method; type: functional; conditions: read-out: IZ
Candida metapsilosis [7] = assay: Antifungal activity against Candida metapsilosis assessed as zone of inhibition at 10 ug/ml by disc diffusion method; type: functional; conditions: Lodderomyces metapsilosis, read-out: IZ
Candida metapsilosis [8] = assay: Antifungal activity against Candida metapsilosis assessed as zone of inhibition at 25 ug/ml by disc diffusion method; type: functional; conditions: Lodderomyces metapsilosis, read-out: IZ
Candida metapsilosis [9] = assay: Antifungal activity against Candida metapsilosis assessed as zone of inhibition at 35 ug/ml by disc diffusion method; type: functional; conditions: Lodderomyces metapsilosis, read-out: IZ
Aspergillus niger [10] = assay: Antifungal activity against Aspergillus niger assessed as zone of inhibition at 10 ug/ml by disc diffusion method; type: functional; conditions: read-out: IZ
Aspergillus niger [11] = assay: Antifungal activity against Aspergillus niger assessed as zone of inhibition at 25 ug/ml by disc diffusion method; type: functional; conditions: read-out: IZ
Aspergillus niger [12] = assay: Antifungal activity against Aspergillus niger assessed as zone of inhibition at 35 ug/ml by disc diffusion method; type: functional; conditions: read-out: IZ
[13] = Antiproliferative activity against mouse BaF3/TRP-Met cells
Chikungunya virus = assay: Antiviral activity against Chikungunya virus infected in Vero E6 cells assessed as inhibition of virus-induced cytopathic effect incubated for 72 hrs by CellTiter Glo luminescence assay; type: functional, organism-based; conditions: Vero C1008, 72 h
Hepatitis C virus = assay: Antiviral activity against Hepatitis C virus genotype 2a infected in human Huh-7 cells assessed as reduction in viral infection; type: functional, organism-based, Hepacivirus hominis
Aphis craccivora = assay: Anti-insecticidal activity against Aphis craccivora; type: functional
Bacillus subtilis [14] = assay: Antibacterial activity against Bacillus subtilis assessed as diameter of zone of inhibition at 400 ug/ml by agar disk diffusion method; type: functional; conditions: read-out: IZ
Bacillus subtilis [15] = assay: Antibacterial activity against Bacillus subtilis assessed as diameter of zone of inhibition at 600 ug/ml by agar disk diffusion method; type: functional; conditions: read-out: IZ
Escherichia coli [16] = assay: Antibacterial activity against Escherichia coli assessed as zone of inhibition at 400 ug/ml by agar disk diffusion method; type: functional; conditions: read-out: IZ
Escherichia coli [17] = assay: Antibacterial activity against Escherichia coli assessed as zone of inhibition at 600 ug/ml by agar disk diffusion method; type: functional; conditions: read-out: IZ
[18] = biological target: Voltage-gated inwardly rectifying potassium channel KCNH2 (Homo sapiens, UniProt Q12809); assay: Inhibition of hERG; type: toxicity
Voltage-gated inwardly rectifying potassium channel KCNH2, sequence (Q12809 whole entry, the tested form may be a part): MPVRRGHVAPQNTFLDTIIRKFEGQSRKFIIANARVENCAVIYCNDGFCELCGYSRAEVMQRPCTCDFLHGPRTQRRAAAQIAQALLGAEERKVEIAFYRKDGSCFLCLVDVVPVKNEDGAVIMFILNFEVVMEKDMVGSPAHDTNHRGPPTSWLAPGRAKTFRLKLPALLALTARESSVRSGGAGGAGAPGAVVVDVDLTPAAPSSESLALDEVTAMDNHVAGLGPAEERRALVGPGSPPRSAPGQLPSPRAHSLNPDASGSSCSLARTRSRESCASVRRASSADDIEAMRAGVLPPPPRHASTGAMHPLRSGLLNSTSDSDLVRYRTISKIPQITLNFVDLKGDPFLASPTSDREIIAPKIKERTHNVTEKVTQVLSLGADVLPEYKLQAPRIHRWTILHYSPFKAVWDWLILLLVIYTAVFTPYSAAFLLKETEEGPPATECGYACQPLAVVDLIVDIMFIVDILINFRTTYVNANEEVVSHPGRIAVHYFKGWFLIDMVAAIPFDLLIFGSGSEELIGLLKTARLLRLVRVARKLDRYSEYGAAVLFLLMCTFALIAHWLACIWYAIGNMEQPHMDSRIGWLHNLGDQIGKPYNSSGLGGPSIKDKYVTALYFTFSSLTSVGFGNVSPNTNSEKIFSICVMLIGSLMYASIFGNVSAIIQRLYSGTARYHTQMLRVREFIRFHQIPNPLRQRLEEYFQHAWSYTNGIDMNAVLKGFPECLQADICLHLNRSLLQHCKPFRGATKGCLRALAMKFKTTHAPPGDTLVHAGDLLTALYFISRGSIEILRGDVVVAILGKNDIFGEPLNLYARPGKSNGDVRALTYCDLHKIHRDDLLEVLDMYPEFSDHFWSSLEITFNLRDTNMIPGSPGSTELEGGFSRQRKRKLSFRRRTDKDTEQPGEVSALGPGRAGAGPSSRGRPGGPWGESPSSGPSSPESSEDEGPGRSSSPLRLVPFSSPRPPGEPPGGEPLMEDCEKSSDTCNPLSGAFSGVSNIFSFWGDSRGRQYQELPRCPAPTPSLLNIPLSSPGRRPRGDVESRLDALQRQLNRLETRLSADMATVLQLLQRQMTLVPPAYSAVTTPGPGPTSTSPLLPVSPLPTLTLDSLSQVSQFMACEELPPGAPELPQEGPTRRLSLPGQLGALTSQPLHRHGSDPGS

Staphylococcus aureus [19] = assay: Antibacterial activity against Staphylococcus aureus assessed as zone of inhibition at 10 ug/ml by agar well diffusion method; type: functional; conditions: read-out: IZ
Staphylococcus aureus [20] = assay: Antibacterial activity against Staphylococcus aureus assessed as zone of inhibition at 25 ug/ml by agar well diffusion method; type: functional; conditions: read-out: IZ
Staphylococcus aureus [21] = assay: Antibacterial activity against Staphylococcus aureus assessed as zone of inhibition at 35 ug/ml by agar well diffusion method; type: functional; conditions: read-out: IZ
Escherichia coli [22] = assay: Antibacterial activity against Escherichia coli assessed as zone of inhibition at 10 ug/ml by agar well diffusion method; type: functional; conditions: read-out: IZ
Escherichia coli [23] = assay: Antibacterial activity against Escherichia coli assessed as zone of inhibition at 25 ug/ml by agar well diffusion method; type: functional; conditions: read-out: IZ
Escherichia coli [24] = assay: Antibacterial activity against Escherichia coli assessed as zone of inhibition at 35 ug/ml by agar well diffusion method; type: functional; conditions: read-out: IZ
hERG (KCNH2) = hERG (KCNH2) (Homo sapiens, UniProt Q12809); assay: Inhibition of hERG potassium […] at 100 uM relative to control; type: toxicity
hERG (KCNH2), sequence (Q12809 whole entry): as the sequence (Q12809 whole entry, the tested form may be a part) above

O=c1oc2ccccc2cc1-c1cnc2c(-c3cccc([N+](=O)[O-])c3)cc3cccnc3n12 showed a zone of inhibition at 10 µg/mL (Staphylococcus aureus [1]) of 8 mm, a zone of inhibition at 25 µg/mL (Staphylococcus aureus [2]) of 19 mm and a zone of inhibition at 35 µg/mL (Staphylococcus aureus [3]) of 31 mm. The zone of inhibition at 10 µg/mL (Escherichia coli [4]) was 8 mm, the zone of inhibition at 25 µg/mL (Escherichia coli [5]) was 2 mm and the zone of inhibition at 35 µg/mL (Escherichia coli [6]) was 32 mm. It also gave a zone of inhibition at 10 µg/mL (Candida metapsilosis [7]) of 7 mm, a zone of inhibition at 25 µg/mL (Candida metapsilosis [8]) of 17 mm and a zone of inhibition at 35 µg/mL (Candida metapsilosis [9]) of 28 mm. It also gave a zone of inhibition at 10 µg/mL (Aspergillus niger [10]) of 7 mm, a zone of inhibition at 25 µg/mL (Aspergillus niger [11]) of 20 mm and a zone of inhibition at 35 µg/mL (Aspergillus niger [12]) of 28 mm.

N[C@H]1CC[C@H](n2c(=O)n(Cc3ccc(Cl)c(Cl)c3)c3nc(Oc4ccc(C(=O)N5CCCCC5)cc4)c4cccnc4c32)CC1 gave an IC50 [13] of less than 1000 nM.

For FC(F)(F)c1cc(C(F)(F)F)c2ccc3nc(-c4nnco4)cn3c2n1, the EC50 (Chikungunya virus) was 203 nM.

Cc1cccc(-c2cnc3ccc4c(C(F)(F)F)cc(C(F)(F)F)nc4n23)c1 gave an EC50 (Hepatitis C virus) of 2.6 µM.

For N#Cc1c(N)nc2c(c1N)C(c1ccc(C(F)(F)F)cc1)C([N+](=O)[O-])=C1N(Cc3ccc(Cl)nc3)CCN12 (configuration not stated), the LC50 (Aphis craccivora) was 31 nM.

In the case of COc1ccc(-c2cc3cccnc3n3c2nc2ccccc23)cc1, the zone of inhibition at 400 µg/mL (Bacillus subtilis [14]) is reported as 7.5 mm, the zone of inhibition at 600 µg/mL (Bacillus subtilis [15]) is reported as 8.5 mm and the zone of inhibition at 400 µg/mL (Escherichia coli [16]) is reported as 11.5 mm. For the same compound, the zone of inhibition at 600 µg/mL (Escherichia coli [17]) was 12.5 mm.

Compound COc1ccc(-c2nc3ccc4c(C)cc(C)nc4n3c2CN2CCC(C)CC2)cc1 has an IC50 [18] of 1120 nM.

Work on N#Cc1c(N)nc2c(c1N)C(c1ccc(F)cc1)C([N+](=O)[O-])=C1N(Cc3ccc(Cl)nc3)CCN12 (configuration not stated) yielded an LC50 (Aphis craccivora) of 11 nM.

Compound Fc1ccc(-c2cc3cccnc3n3c(-c4ccc(Cl)cc4)cnc23)c(Cl)c1 has a zone of inhibition at 10 µg/mL (Staphylococcus aureus [19]) of 6 mm, a zone of inhibition at 25 µg/mL (Staphylococcus aureus [20]) of 16 mm and a zone of inhibition at 35 µg/mL (Staphylococcus aureus [21]) of 24 mm. The zone of inhibition at 10 µg/mL (Escherichia coli [22]) was 6 mm, the zone of inhibition at 25 µg/mL (Escherichia coli [23]) was 16 mm and the zone of inhibition at 35 µg/mL (Escherichia coli [24]) was 25 mm.

Work on Cc1cc(C)c2ccc3nc(-c4ccc(F)cc4)c(CN4CCOCC4)n3c2n1 yielded an IC50 [18] greater than 50000 nM.

Compound COc1ccc(-c2cc3c(C(F)(F)F)cc(C(F)(F)F)nc3n3c(-c4ccc(OC)cc4)cnc23)cc1 has an EC50 (Hepatitis C virus) of 4.1 µM.

In the case of Cc1cc(C)c2ccc3nc(-c4ccccc4)c(CN4CCOCC4)n3c2n1, the inhibition at 100 µM (hERG (KCNH2)) is reported as 10.1%.

Work on FC(F)(F)c1cc(C(F)(F)F)c2ccc3ncc(-c4cncnc4)n3c2n1 yielded an EC50 (Hepatitis C virus) greater than 20 µM.
